Reference: ChEMBL document CHEMBL3621169, “Synthesis of tetrazole compounds as a novel type of potential antimicrobial agents and their synergistic effects with clinical drugs and interactions with calf thymus DNA” (Medchemcomm, 2015)
Converted amounts (≈) assume the structure as drawn.

Assays:
[1] = tested on: Shigella dysenteriae; assay: Antibacterial activity against Shigella dysenteriae ATCC 51252 after 24 hrs by micro broth dilution method; format: functional; details: ATCC 51252, 24 h
[2] = tested on: Escherichia coli; assay: Antibacterial activity against Escherichia coli DH52 after 24 hrs by micro broth dilution method; format: functional; details: DH52, 24 h
[3] = tested on: Bacillus sp.; assay: Antibacterial activity against Bacillus proteus ATCC 13315 after 24 hrs by micro broth dilution method; format: functional; details: Bacillus sp. (in: firmicutes), ATCC 13315, 24 h
[4] = tested on: Pseudomonas aeruginosa; assay: Antibacterial activity against Pseudomonas aeruginosa ATCC 27853 after 24 hrs by micro broth dilution method; format: functional; details: ATCC 27853, 24 h
[5] = tested on: Bacillus spizizenii; assay: Antibacterial activity against Bacillus subtilis ATCC 6633 after 24 hrs by micro broth dilution method; format: functional; details: ATCC 6633, 24 h
[6] = tested on: Candida albicans; assay: Antifungal activity against Candida albicans ATCC 90029 after 24 hrs by micro broth dilution method; format: functional; details: ATCC 90029, 24 h
[7] = tested on: Micrococcus luteus; assay: Antibacterial activity against Micrococcus luteus ATCC 4698 after 24 hrs by micro broth dilution method; format: functional; details: ATCC 4698, 24 h
[8] = tested on: Staphylococcus aureus; assay: Antibacterial activity against Staphylococcus aureus ATCC 25923 after 24 hrs by micro broth dilution method; format: functional; details: ATCC 25923, 24 h
[9] = tested on: Staphylococcus aureus; assay: Antibacterial activity against methicillin-resistant Staphylococcus aureus N315 after 24 hrs by micro broth dilution method; format: functional; details: N315, 24 h
[10] = tested on: Aspergillus flavus; assay: Antifungal activity against Aspergillus flavus after 24 hrs by micro broth dilution method; format: functional
[11] = tested on: Candida; assay: Antifungal activity against Candida mycoderma after 24 hrs by micro broth dilution method; format: functional
[12] = tested on: Cyberlindnera jadinii; assay: Antifungal activity against Candida utilis ATCC 9950 after 24 hrs by micro broth dilution method; format: functional; details: Williopsis jadinii, ATCC 9950, 24 h
[13] = Ionization constant, pKa of the compound by UV spectroscopy; format: physicochemical

Row | SMILES | MIC [1] | MIC [2] | MIC [3] | MIC [4] | MIC [5] | MIC [6] | MIC [7] | MIC [8] | MIC [9] | MIC [10] | MIC [11] | MIC [12] | pKa [13]
1 | N#CCN(Cc1cccc(F)c1)c1ccccc1 | 128 µg/mL (≈ 533 µM) | 256 µg/mL (≈ 1070 µM) | 128 µg/mL (≈ 533 µM) | 256 µg/mL (≈ 1070 µM) | 128 µg/mL (≈ 533 µM) | 64 µg/mL (≈ 266 µM) | 256 µg/mL (≈ 1070 µM) | 64 µg/mL (≈ 266 µM) | 128 µg/mL (≈ 533 µM) | 256 µg/mL (≈ 1070 µM) | 128 µg/mL (≈ 533 µM) | 128 µg/mL (≈ 533 µM) | 
2 | N#CCN(Cc1ccc(Cl)cc1Cl)c1ccccc1 | 256 µg/mL (≈ 879 µM) | 128 µg/mL (≈ 440 µM) | 256 µg/mL (≈ 879 µM) | 256 µg/mL (≈ 879 µM) | 128 µg/mL (≈ 440 µM) | 128 µg/mL (≈ 440 µM) | 256 µg/mL (≈ 879 µM) | 256 µg/mL (≈ 879 µM) | 256 µg/mL (≈ 879 µM) | 256 µg/mL (≈ 879 µM) | 64 µg/mL (≈ 220 µM) | 128 µg/mL (≈ 440 µM) | 
3 | Cc1ccc(N(CC#N)Cc2ccc(F)cc2F)cc1 | 128 µg/mL (≈ 470 µM) | 128 µg/mL (≈ 470 µM) | 128 µg/mL (≈ 470 µM) | 256 µg/mL (≈ 940 µM) | 256 µg/mL (≈ 940 µM) | 64 µg/mL (≈ 235 µM) | 128 µg/mL (≈ 470 µM) | 128 µg/mL (≈ 470 µM) | 256 µg/mL (≈ 940 µM) | 64 µg/mL (≈ 235 µM) | 128 µg/mL (≈ 470 µM) | 128 µg/mL (≈ 470 µM) | 
4 | CCCCCCCCCCN(Cc1nnn[nH]1)c1ccccc1 | 64 µg/mL (≈ 203 µM) | 32 µg/mL (≈ 101 µM) | 64 µg/mL (≈ 203 µM) | 128 µg/mL (≈ 406 µM) | 32 µg/mL (≈ 101 µM) | 32 µg/mL (≈ 101 µM) | 32 µg/mL (≈ 101 µM) | 64 µg/mL (≈ 203 µM) | 32 µg/mL (≈ 101 µM) | 32 µg/mL (≈ 101 µM) | 32 µg/mL (≈ 101 µM) | 16 µg/mL (≈ 50.7 µM) | 4.87
5 | N#CCN(Cc1ccc(Cl)c(Cl)c1)c1ccccc1 | 128 µg/mL (≈ 440 µM) | 256 µg/mL (≈ 879 µM) | 256 µg/mL (≈ 879 µM) | 256 µg/mL (≈ 879 µM) | 128 µg/mL (≈ 440 µM) | 64 µg/mL (≈ 220 µM) | 256 µg/mL (≈ 879 µM) | 256 µg/mL (≈ 879 µM) | 256 µg/mL (≈ 879 µM) | 256 µg/mL (≈ 879 µM) | 128 µg/mL (≈ 440 µM) | 256 µg/mL (≈ 879 µM) | 
6 | CCCCCCCCCCCCN(Cc1nnn[nH]1)c1ccccc1 | 256 µg/mL (≈ 745 µM) | 128 µg/mL (≈ 373 µM) | 256 µg/mL (≈ 745 µM) | 256 µg/mL (≈ 745 µM) | 64 µg/mL (≈ 186 µM) | 128 µg/mL (≈ 373 µM) | 128 µg/mL (≈ 373 µM) | 128 µg/mL (≈ 373 µM) | 128 µg/mL (≈ 373 µM) | 32 µg/mL (≈ 93.2 µM) | 64 µg/mL (≈ 186 µM) | 64 µg/mL (≈ 186 µM) | 4.92
7 | CCCCCCCCCCCCN(CC#N)c1ccccc1 | 512 µg/mL (≈ 1700 µM) | 256 µg/mL (≈ 852 µM) | 512 µg/mL (≈ 1700 µM) | 512 µg/mL (≈ 1700 µM) | 256 µg/mL (≈ 852 µM) | 256 µg/mL (≈ 852 µM) | 128 µg/mL (≈ 426 µM) | 256 µg/mL (≈ 852 µM) | 512 µg/mL (≈ 1700 µM) | 128 µg/mL (≈ 426 µM) | 256 µg/mL (≈ 852 µM) | 256 µg/mL (≈ 852 µM) | 
8 | N#CCN(Cc1ccc(F)cc1F)c1ccccc1 | 256 µg/mL (≈ 991 µM) | 64 µg/mL (≈ 248 µM) | 256 µg/mL (≈ 991 µM) | 128 µg/mL (≈ 496 µM) | 256 µg/mL (≈ 991 µM) | 128 µg/mL (≈ 496 µM) | 256 µg/mL (≈ 991 µM) | 128 µg/mL (≈ 496 µM) | 256 µg/mL (≈ 991 µM) | 256 µg/mL (≈ 991 µM) | 256 µg/mL (≈ 991 µM) | 512 µg/mL (≈ 1980 µM) | 
9 | N#CCN(Cc1ccc(F)cc1)c1ccccc1 | 128 µg/mL (≈ 533 µM) | 128 µg/mL (≈ 533 µM) | 256 µg/mL (≈ 1070 µM) | 256 µg/mL (≈ 1070 µM) | 128 µg/mL (≈ 533 µM) | 64 µg/mL (≈ 266 µM) | 512 µg/mL (≈ 2130 µM) | 256 µg/mL (≈ 1070 µM) | 128 µg/mL (≈ 533 µM) | 128 µg/mL (≈ 533 µM) | 128 µg/mL (≈ 533 µM) | 128 µg/mL (≈ 533 µM) | 
10 | N#CCN(Cc1ccccc1Cl)c1ccccc1 | 128 µg/mL (≈ 499 µM) | 256 µg/mL (≈ 997 µM) | 128 µg/mL (≈ 499 µM) | 128 µg/mL (≈ 499 µM) | 256 µg/mL (≈ 997 µM) | 128 µg/mL (≈ 499 µM) | 256 µg/mL (≈ 997 µM) | 128 µg/mL (≈ 499 µM) | 128 µg/mL (≈ 499 µM) | 128 µg/mL (≈ 499 µM) | 64 µg/mL (≈ 249 µM) | 64 µg/mL (≈ 249 µM) | 
11 | COc1ccc(N(CC#N)Cc2ccc(F)cc2F)cc1 | 256 µg/mL (≈ 888 µM) | 256 µg/mL (≈ 888 µM) | 256 µg/mL (≈ 888 µM) | 128 µg/mL (≈ 444 µM) | 128 µg/mL (≈ 444 µM) | 128 µg/mL (≈ 444 µM) | 128 µg/mL (≈ 444 µM) | 256 µg/mL (≈ 888 µM) | 256 µg/mL (≈ 888 µM) | 128 µg/mL (≈ 444 µM) | 256 µg/mL (≈ 888 µM) | 128 µg/mL (≈ 444 µM) | 
12 | OC(Cn1cncn1)(Cn1cncn1)c1ccc(F)cc1F [FLUCONAZOLE] |  |  |  |  |  | 0.5 µg/mL (≈ 1.63 µM) |  |  |  | 64 µg/mL (≈ 209 µM) | 2 µg/mL (≈ 6.53 µM) | 1 µg/mL (≈ 3.27 µM) | 
13 | CCCCCCCCCCN(CC#N)c1ccccc1 | 512 µg/mL (≈ 1880 µM) | 64 µg/mL (≈ 235 µM) | 128 µg/mL (≈ 470 µM) | 256 µg/mL (≈ 940 µM) | 64 µg/mL (≈ 235 µM) | 128 µg/mL (≈ 470 µM) | 128 µg/mL (≈ 470 µM) | 128 µg/mL (≈ 470 µM) | 128 µg/mL (≈ 470 µM) | 128 µg/mL (≈ 470 µM) | 128 µg/mL (≈ 470 µM) | 256 µg/mL (≈ 940 µM) | 
